Series [1] concerns the target T1, rat mGluR5 (Rattus norvegicus, UniProt P31424).
T1 construct: expressed in transfected cells
The series is described as follows: mGluR5 assay on HEK-expressing rat mGluR5 (fluorescent cell based Ca2+ mobilization assay). The settings on record: for EC50: HEK-293 cells stably expressing rat mGluR5, no co-addition of glutamate, mean of at least three independent experiments in duplicate, read-out: Ca++ Flux (mean EC50); for activation of rat mGluR5 receptors without co-addition of glutamate or mGluR5 agonist: HEK-rat mGluR5 cell line. On the procedure:
Positive functional expression of HEK-293 cells stably expressing rat mGluR5 receptor was determined by measuring intracellular Ca^2+ changes using a Fluorometric Imaging Plate Reader (FLIPR, Molecular Devices, Sunnyvale, Calif.) in response to glutamate or selective known mGluR5 agonists and antagonists. Rat mGluR5RT-PCR products in HEK-293 cells were sequenced and found 100% identical to rat mGluR5Genbank reference sequence (NM_017012). HEK-293 cells expressing rmGluR5 were maintained in media containing DMEM, dialyzed Fetal Bovine Serum (10%), Glutamax™ (2 mM), Penicillin (100 units/ml), Streptomycin (100 μg/ml), Geneticin (100 μg/ml) and Hygromycin-B (40 μg/ml) at 37° C./5% CO2.
After one day of incubation, cells were washed with assay buffer containing: 142 mM NaCl, 6 mM KCl, 1 mM […], 1 mM CaCl2, 20 mM HEPES, 1 g/L glucose, 0.125 mM sulfinpyrazone, pH 7.4. After 60 min of loading with 4 uM Fluo-4 (TefLabs, Austin, Tex.), the cells were washed three times with 50 μl of PBS Buffer and resuspended in 45 μl of assay Buffer. The plates were then transferred to a Fluorometric Imaging Plate Reader (FLIPR, Molecular Devices, Sunnyvale, Calif.) for the assessment of intracellular calcium flux. After monitoring the baseline fluorescence for 10 seconds, increasing concentrations of representative compound (from 0.01 to 60 μM) of the present invention diluted in Assay Buffer (15 μl of 4× dilutions) was added to the cell. The final DMSO concentration in the assay was 0.3%. In each experiment, fluorescence was then monitored as a function of time for 3 minutes and the data analyzed using Microsoft Excel and GraphPad Prism. Each data point was also measured two times.
Under these experimental conditions, this HEK-rat mGluR5 cell line is able to directly detect positive allosteric modulators without the need of co-addition of glutamate or mGluR5 agonist.
The concentration-response curves of representative compounds of the present invention were generated using the Prism GraphPad software (Graph Pad Inc, San Diego, USA). The curves were fitted to a four-parameter logistic equation:
(Y=Bottom+(Top−Bottom)/(1+10̂((Log EC50−X)*Hill Slope)
allowing determination of EC50 values.
The Table 5 below represents the mean EC50 obtained from at least three independent experiments of selected molecules performed in duplicate.
On the technique in general: Calcium assays in cells follow changes in intracellular calcium, usually with a dye or a luminescent sensor.

In series [2] the target is T2, mGluR5 (Rattus norvegicus, UniProt P31424).
T2 construct: positive allosteric modulators of mGluR5 receptors in native preparations; endogenous in cells; host or cells: primary cortical astrocytes from Sprague-Dawley rat embryos (E16-19)
The settings on record: cited from earlier work.

A value given as a limit tells only on which side of the number the result lay.

T1 sequence (P31424 21-1171 isoform P31424-2 limits assumed): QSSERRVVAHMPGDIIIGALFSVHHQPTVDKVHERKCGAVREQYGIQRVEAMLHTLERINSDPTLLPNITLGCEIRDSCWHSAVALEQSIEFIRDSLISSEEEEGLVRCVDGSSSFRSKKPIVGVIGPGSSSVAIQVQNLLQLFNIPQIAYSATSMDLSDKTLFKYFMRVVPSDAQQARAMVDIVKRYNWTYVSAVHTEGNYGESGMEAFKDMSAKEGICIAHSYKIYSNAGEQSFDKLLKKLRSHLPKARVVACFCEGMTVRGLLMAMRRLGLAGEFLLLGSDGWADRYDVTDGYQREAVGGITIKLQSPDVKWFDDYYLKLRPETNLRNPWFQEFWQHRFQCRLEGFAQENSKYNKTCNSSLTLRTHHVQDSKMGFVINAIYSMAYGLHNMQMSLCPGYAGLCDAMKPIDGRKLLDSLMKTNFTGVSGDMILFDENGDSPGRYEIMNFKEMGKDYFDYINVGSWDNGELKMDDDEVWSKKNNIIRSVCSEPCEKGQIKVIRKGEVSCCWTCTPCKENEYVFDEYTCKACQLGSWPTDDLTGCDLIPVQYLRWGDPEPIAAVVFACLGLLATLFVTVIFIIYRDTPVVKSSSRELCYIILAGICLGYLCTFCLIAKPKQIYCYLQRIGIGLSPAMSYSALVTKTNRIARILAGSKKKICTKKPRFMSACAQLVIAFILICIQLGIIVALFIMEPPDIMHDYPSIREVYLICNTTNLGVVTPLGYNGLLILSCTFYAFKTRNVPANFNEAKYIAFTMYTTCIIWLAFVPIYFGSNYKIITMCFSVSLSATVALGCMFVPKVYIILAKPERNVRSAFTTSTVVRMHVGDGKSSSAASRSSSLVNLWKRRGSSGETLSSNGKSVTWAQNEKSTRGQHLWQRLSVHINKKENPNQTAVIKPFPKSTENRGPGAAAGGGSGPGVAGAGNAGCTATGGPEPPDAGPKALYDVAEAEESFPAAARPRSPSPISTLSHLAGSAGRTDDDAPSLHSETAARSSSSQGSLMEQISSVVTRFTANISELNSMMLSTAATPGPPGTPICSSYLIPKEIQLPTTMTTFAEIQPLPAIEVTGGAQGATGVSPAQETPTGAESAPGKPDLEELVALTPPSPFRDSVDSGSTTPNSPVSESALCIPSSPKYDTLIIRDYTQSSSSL
T2 sequence (P31424 21-1203): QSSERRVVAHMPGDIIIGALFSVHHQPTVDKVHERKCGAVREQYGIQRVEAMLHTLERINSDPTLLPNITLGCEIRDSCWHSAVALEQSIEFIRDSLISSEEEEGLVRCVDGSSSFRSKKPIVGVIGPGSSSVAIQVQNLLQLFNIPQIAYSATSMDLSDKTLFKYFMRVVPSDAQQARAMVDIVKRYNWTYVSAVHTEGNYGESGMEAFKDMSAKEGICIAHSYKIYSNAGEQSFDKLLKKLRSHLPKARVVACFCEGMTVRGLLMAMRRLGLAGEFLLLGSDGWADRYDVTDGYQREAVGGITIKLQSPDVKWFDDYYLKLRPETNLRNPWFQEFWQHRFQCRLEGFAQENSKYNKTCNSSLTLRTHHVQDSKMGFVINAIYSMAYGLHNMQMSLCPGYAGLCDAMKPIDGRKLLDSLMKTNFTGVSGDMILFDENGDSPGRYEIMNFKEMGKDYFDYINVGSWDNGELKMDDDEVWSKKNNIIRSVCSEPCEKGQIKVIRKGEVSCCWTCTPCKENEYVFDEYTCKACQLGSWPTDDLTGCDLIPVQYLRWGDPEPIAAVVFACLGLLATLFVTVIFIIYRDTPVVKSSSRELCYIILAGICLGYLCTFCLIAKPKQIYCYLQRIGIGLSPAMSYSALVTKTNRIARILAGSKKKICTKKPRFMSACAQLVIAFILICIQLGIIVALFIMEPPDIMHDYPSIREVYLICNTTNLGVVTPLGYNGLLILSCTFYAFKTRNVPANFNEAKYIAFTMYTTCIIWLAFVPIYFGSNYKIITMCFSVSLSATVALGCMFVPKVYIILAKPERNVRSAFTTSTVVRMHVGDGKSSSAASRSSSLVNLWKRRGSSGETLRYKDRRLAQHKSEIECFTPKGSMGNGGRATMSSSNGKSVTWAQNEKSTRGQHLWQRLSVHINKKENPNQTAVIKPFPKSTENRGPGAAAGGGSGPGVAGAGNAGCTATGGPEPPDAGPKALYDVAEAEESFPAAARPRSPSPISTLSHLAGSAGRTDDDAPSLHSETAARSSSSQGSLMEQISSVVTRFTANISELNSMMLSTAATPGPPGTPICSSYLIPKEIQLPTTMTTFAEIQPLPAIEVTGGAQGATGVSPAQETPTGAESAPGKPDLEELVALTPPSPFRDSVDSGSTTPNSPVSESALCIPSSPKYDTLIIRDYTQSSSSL

Turning to `O=C(c1ccc(F)cc1)N1CCC[C@H](c2noc(NCc3ccc(F)cc3)n2)C1` [Example 13, {(S)-3-[5-(4-Fluoro-benzylamino)-[1,2,4]oxadiazol-3-yl]-piperidin-1-yl}-(4-fluoro-phenyl)-methanone], in series [1], the 50% effective concentration (EC50) was in the range of 1000 to 10000 nM. The same measure, in the same setting: then `O=C(c1ccc(F)cc1)N1CCC[C@H](c2noc(Cc3ccc(F)cc3)n2)C1` [Example 4, {(S)-3-[5-(4-Fluoro-benzyl)-[1,2,4]oxadiazol-3-yl]-piperidin-1-yl}-(4-fluoro-phenyl)-methanone], with under 1000 nM; and `O=C(c1ccc(F)nc1)N1CCC[C@H](c2nc(Oc3ccccc3F)no2)C1` [Example 18, {(S)-3-[3-(2-Fluoro-phenoxy)-[1,2,4]oxadiazol-5-yl]-piperidin-1-yl}-(6-fluoro-pyridin-3-yl)-methanone], with 1000 to 10000 nM. With `O=C(c1ccc(F)cc1)N1CCC[C@H](c2noc(Cc3ccccc3)n2)C1` [Example 7, [(S)-3-(5-Benzyl-[1,2,4]oxadiazol-3-yl)-piperidin-1-yl]-(4-fluoro-phenyl)-methanone], the melting point was determined as 75 °C. In series [1], the concentration for a half-maximal effect (EC50) is under 1000 nM. In the case of `O=C(c1ccc(F)nc1)N1CCC[C@H](c2nc(Oc3cccc(F)c3)no2)C1` [Example 19, {(S)-3-[3-(3-Fluoro-phenoxy)-[1,2,4]oxadiazol-5-yl]-piperidin-1-yl}-(6-fluoro-pyridin-3-yl)-methanone], the EC50 in series [1] was under 1000 nM. For `O=C(c1ccc(F)cc1)N1CCC[C@H](c2noc([C@@H](O)c3ccccc3)n2)C1` [Example 8, (4-Fluoro-phenyl)-{(S)-3-[5-((S)-hydroxy-phenyl-methyl)-[1,2,4]oxadiazol-3-yl]-piperidin-1-yl}-methanone], the melting point lay in the range of 168 to 172 °C. For the same compound, the concentration for a half-maximal effect (EC50) in series [1] is over 10000 nM.

In the case of `O=C(c1ccc(F)c(F)c1)N1CCC[C@H](c2noc(Cc3ccc(F)cc3)n2)C1` [Example 3, (3,4-Difluoro-phenyl)-{(S)-3-[5-(4-fluoro-benzyl)-[1,2,4]oxadiazol-3-yl]-piperidin-1-yl}-methanone], the concentration for a half-maximal effect (EC50) in series [1] is under 1000 nM. On the same count and under the same terms, then `O=C(c1ccc(F)nc1)N1CCC[C@H](c2nc(Oc3ccccc3)no2)C1` [Example 17, (6-Fluoro-pyridin-3-yl)-[(S)-3-(3-phenoxy-[1,2,4]oxadiazol-5-yl)-piperidin-1-yl]-methanone], with under 1000 nM; and `O=C(c1ccc(F)cc1)N1CCCC(c2nc(Oc3ccc(F)cc3)no2)C1` (centres unmarked) [Example 15, {3-[3-(4-Fluoro-phenoxy)-[1,2,4]oxadiazol-5-yl]-piperidin-1-yl}-(4-fluoro-phenyl)-methanone], with 1000 to 10000 nM.

On to `O=C(c1ccc(F)c(F)c1)N1CCC[C@H](c2nc(Cc3ccc(F)cc3)no2)C1` [Example 2, (3,4-Difluoro-phenyl)-{(S)-3-[3-(4-fluoro-benzyl)-[1,2,4]oxadiazol-5-yl]-piperidin-1-yl}-methanone], for which the concentration for a half-maximal effect (EC50) in series [1] is under 1000 nM. Same read-out and setting: for `O=C(c1ccc(F)cc1)N1CCC[C@H](c2noc(CCc3ccccc3)n2)C1` [Example 10, (4-Fluoro-phenyl)-[(S)-3-(5-phenethyl-[1,2,4]oxadiazol-3-yl)-piperidin-1-yl]-methanone] the value was 1000 to 10000 nM; for `O=C(c1ccc(F)cc1)N1CCC[C@H](n2nnc(Cc3ccccc3)n2)C1` [Example 14, [(S)-3-(5-Benzyl-tetrazol-2-yl)-piperidin-1-yl]-(4-fluoro-phenyl)-methanone], under 1000 nM. Take `O=C(c1ccncc1F)N1CCC[C@H](c2nc(Oc3ccccc3)no2)C1` [Example 22, (3-Fluoro-pyridin-4-yl)-[(S)-3-(3-phenoxy-[1,2,4]oxadiazol-5-yl)-piperidin-1-yl]-methanone]: in series [1], the concentration giving a half-maximal response (EC50) is 1000 to 10000 nM. The compound `O=C(c1ccc(F)cc1)N1CCCC(c2nc(Oc3cccc(F)c3)no2)C1` (centres unmarked) [Example 21, {3-[3-(3-Fluoro-phenoxy)-[1,2,4]oxadiazol-5-yl]-piperidin-1-yl}-(4-fluoro-phenyl)-methanone] returned a melting point of 99 to 102 °C. For the same compound, in series [1], the concentration giving a half-maximal response (EC50) is under 1000 nM. Consider `O=C(c1ccc(F)cc1)N1CCC[C@H](c2nc(Sc3ccccc3)no2)C1` [Example 20, (4-Fluoro-phenyl)-[(S)-3-(3-phenylsulfanyl-[1,2,4]oxadiazol-5-yl)-piperidin-1-yl]-methanone], for which the concentration for a half-maximal effect (EC50) in series [1] is over 10000 nM. Turning to `N#Cc1cccc(C(=O)Nc2cc(-c3ccccc3)nn2-c2ccccc2)c1` [CDPPB, reference compound], the “activation of rat mGluR5 receptors without co-addition of glutamate or mGluR5 agonist” value in series [1] was “activating”. Moreover, the “activity in rat cortical astrocytes culture in the absence of added glutamate” value (from here on “activity”) in series [2] is “inactive”. On to `O=C(Nc1ccc(Cl)cc1CN1C(=O)c2ccccc2C1=O)c1ccccc1O` [CPPHA, reference compound], for which, in series [1], the “activation of rat mGluR5 receptors without co-addition of glutamate or mGluR5 agonist” value is reported as “activating”. For the same compound, the “activity” value in series [2] is “inactive”.

Turning to `O=C(c1ccc(F)cc1)N1CCC[C@H](c2noc(Nc3ccccc3)n2)C1` [Example 12, (4-Fluoro-phenyl)-[(S)-3-(5-phenylamino-[1,2,4]oxadiazol-3-yl)-piperidin-1-yl]-methanone], in series [1], the EC50 was 1000 to 10000 nM. `O=C(c1ccc(F)cc1)N1CCCC(c2nc(Oc3ccccc3)no2)C1` (centres unmarked) [Example 16, (4-Fluoro-phenyl)-[3-(3-phenoxy-[1,2,4]oxadiazol-5-yl)-piperidin-1-yl]-methanone]: the melting point was 96 to 100 °C. In addition, in series [1], the 50% effective concentration (EC50) is under 1000 nM. As to `Fc1cccc(/C=N/N=C/c2cccc(F)c2)c1` [DFB, reference compound], the “activation of rat mGluR5 receptors without co-addition of glutamate or mGluR5 agonist” value in series [1] is “activating”. Further, the “activity” value in series [2] is “inactive”. `O=C(c1ccc(F)cc1)N1CCC[C@H](c2noc([C@H](O)c3ccccc3)n2)C1` [Example 9, (4-Fluoro-phenyl)-{(S)-3-[5-((R)-hydroxy-phenyl-methyl)-[1,2,4]oxadiazol-3-yl]-piperidin-1-yl}-methanone]: the EC50 in series [1] fell in the range of 1000 to 10000 nM. Same read-out and setting: for `C[C@@H](c1ccccc1)c1nc([C@H]2CCCN(C(=O)c3ccc(F)cc3)C2)no1` [Example 5, (4-Fluoro-phenyl)-{(S)-3-[5-((S)-1-phenyl-ethyl)-[1,2,4]oxadiazol-3-yl]-piperidin-1-yl}-methanone] the value was 1000 to 10000 nM. As for `O=C(c1ccccc1)c1nc([C@H]2CCCN(C(=O)c3ccc(F)cc3)C2)no1` [Example 11, {3-[(S)-1-(4-Fluoro-benzoyl)-piperidin-3-yl]-[1,2,4]oxadiazol-5-yl}-phenyl-methanone], the melting point was 80 to 83 °C. The EC50 in series [1] fell in the range of 1000 to 10000 nM. Take `C[C@H](c1ccccc1)c1nc([C@H]2CCCN(C(=O)c3ccc(F)cc3)C2)no1` [Example 6, (4-Fluoro-phenyl)-{(S)-3-[5-((R)-1-phenyl-ethyl)-[1,2,4]oxadiazol-3-yl]-piperidin-1-yl}-methanone]: in series [1], the EC50 was over 10000 nM.

The term EC50 denotes the concentration needed to bring the measured effect to its halfway point. The melting point is the temperature of the solid-liquid transition.
